Data reported in US20160128988A1, “COMBINATIONS FOR THE TREATMENT OF CANCER COMPRISING A MPS-1 KINASE INHIBITOR AND A MITOTIC INHIBITOR” (BAYER PHARMA AKTIENGESELLSCHAFT, priority 2013, published 2016).

Columns and labels:
[1] = system: human glioblastoma model U87 MG; assay: Combination with vincristine in human glioblastoma model U87 MG (intracerebral); assay type: in vivo, nude mice
Procedure: The study was designed to determine the response of this glioblastoma model to the treatment with the investigational Compound A1 and vincristine, both alone at a fixed dose, and vincristine in combination with two different doses, both lower than that of Compound A1 used in the monotherapy schedule. The size of the glioblastoma was used as read out parameter for response.
The cell culture derived human xenograft U87 MG was initiated by transplantation of the tumor cells into the left hemisphere of the mouse brain. Treatment was done in three cycles between day 3 and day 19. Mice were sacrificed at day 24, the brain isolated and shock frozen in 2 methyl-butane. Tumor size were determined as measure for tumor growth inhibition from cryo-slizes after staining.

[2] = system: NCI-H1299 human NSCLC xenograft tumors
Excerpt: The effect of combination treatment of an Mps-1 kinase inhibitor (Compound A1) with docetaxel, another SAC activating, […], anti-mitotic agent, used as standard of care in NSCLC patients, was studied in the NCI-H1299 taxane intrinsically resistant human lung carcinoma (NSCLC) xenograft model in nude mice.
Docetaxel was applied intravenously once per week upon its respective MTD. Substances were formulated in optimal vehicles to achieve solutions. Animal body weight and tumor size were determined two times weekly. […] For combination treatment Compound A1and docetaxel were applied at the same day within a time frame of 4 hours. Animals of control and Mps-1 kinase inhibitor monotherapy group were treated for a duration of 20 days. Animals of docetaxel monotherapy and docetaxel/Mps-1 kinase inhibitor combination treatment groups were treated for a duration of 42 days. At the end of the study after one final treatment plasma and tumors were sampled for PK analysis and final tumor weight was determined.
NCI-H1299 human NSCLC tumor cells were implanted s.c. into nude mice on day 0. […] Compound A1 was administered orally (p.o.) upon 2.0 mg/kg twice daily (2QD) for 2 days on/5 days off (2 on/5 off) in monotherapy and in combination with docetaxel. Docetaxel was administered intravenously (i.v.) upon 15 mg/kg once daily (QD) once per week (1 on/6 off) in monotherapy and combination therapy. Tumor growth was monitored by determination of the tumor area using calliper measurement two to three times weekly. FIG. 2A: Time course of tumor growth. FIG. 2B: Weight of tumors in docetaxel/Mps-1 kinase inhibitor combination group at the end of the study at day 52 after tumor cell inoculation. FIG. 2C: Time course of animal body weight change during the course of the study.

[3] = day 24, single agents: Gr. B Compound A1 2.5 mg/kg p.o., Gr. C Vincristine 0.75 mg/kg i.p.
[4] = Compound A1 2 mg/kg 2QD 2on/5off p.o., docetaxel 15 mg/kg QD 1on/6off i.v.

Q: For COc1cc(S(C)(=O)=O)ccc1Nc1nc2ccc(-c3ccc(NC(=O)[C@H](C)c4ccc(F)cc4)cc3)cn2n1 [Compound A1], which “tumor growth inhibition (in words)” value ([1]; Compound A1 single drug 2.5 mg/kg, combination with vincristine) is on record?
A: no inhibitory effect

Q: And the “BWC [%] (at day), nadir of body weight” value ([1]; Gr. B: Compound A1 2.5 mg/kg p.o. BIDx2x3)?
A: −7.7 (d24) %

Q: What about the “Brain tumor inside [mm^2]” value ([1]; day 24, single agents: Gr. B Compound A1 2.5 mg/kg p.o. BIDx2x3, Gr. C Vincristine 0.75 mg/kg i.p. 1xqWx3) of the same compound?
A: 15.89 +/− 9.93 mm^2

Q: And the “Brain tumor outside [mm^2]” value [1, 3]?
A: 5.50 +/− 4.09 mm^2

Q: And the “Brain tumor total [mm^2]” value [1, 3]?
A: 20.64 +/− 12.14 mm^2

Q: And the “T/C (inside T) [%]” value [1, 3]?
A: 91.3%

Q: And the “Fatal Tox” value [2, 4]?
A: 0/8

Q: What about the “Max. Body weight loss (%)” value [2, 4] of the same compound?
A: −3%

Q: And the “anti-tumor efficacy (in words)” value ([2]; Compound A1 2 mg/kg 2QD p.o. (20 treatment days), combination with docetaxel 15 mg/kg i.v. (42 treatment days))?
A: weak efficacy

Q: And the T/C weight ([2]; mean final tumor weight, Compound A1 2 mg/kg 2QD 2on/5off p.o.)?
A: 1.01

Q: And the T/C area ([2]; relative mean tumor area, 20 treatment days, Compound A1 2 mg/kg 2QD 2on/5off p.o., docetaxel 15 mg/kg QD 1on/6off i.v.)?
A: 0.89
